Experimental data: patent US7332602B2, “Pyridyl substituted heterocycles useful for treating or preventing HCV infection” (Rigel Pharmaceuticals, Inc., priority 2002, dated 2008)
Where two headings read alike, the source gives them in different places.

What was measured:
[1] = tested on: HCV replicon (5-2 Luc replicon-comprising cells); test: HCV replicon assay (luciferase reporter); format: cell-based, Hepatitis C virus; settings: first symbol of the Replicon/Western cell, 5-2 Luc replicon cells, 24 hours with compound, read-out: Replicon (IC50, 50% reduction in luciferase emission)
Experimental: The inhibitory activity of certain exemplary compounds of the invention was confirmed using an HCV replicon assay. The HCV replicon can include such features as the HCV IRES, the HCV 3′ untranslated region, selected HCV genes encoding HCV polypeptides, selectable markers, and a reporter gene such as luciferase, GEP, etc. In the assay, actively dividing 5-2 Luc replicon-comprising cells were seeded at a density of between about 5,000 and 7,500 cells/well onto 96 well plates (about 90 μl of cells per well) and incubated at 37° C. and 5% CO2 for 24 hours. Then, the test compound (in a volume of about 10 μl) was added at various concentrations to each well and the cells were incubated for an additional 24 hours before luciferase assay. The cells were harvested, and HCV replication or translation was monitored via a reporter assay, e.g., a luciferase reporter assay. The media was aspirated from each cell and Bright-Glo ([…].) luciferase assay reagents were added to each well according to the manufacturer's instructions. In this assay, the amount of test compound that yielded a 50% reduction in luciferase emission (IC50) was determined.

[2] = cytotoxicity assay (Cell Titer Glo); format: cell-based; settings: human; 48 hr with compound, ATP-dependent Cell Titer Glo; read-out: IC50 (cytotoxicity, number of viable cells)
Experimental: Compounds 1, 3, 7, 9, 11, 13, 17, 19, 21, 27, 29, 31, 33, 35, 37, 39, 47, 49, 51, 57 and 69 were tested in a cytotoxicity assay with liver cells including an HCV replicon (5-2 Luc cells, 9-13 cells or Huh-7 cells). In the assay, cells were seeded onto 96-well plates (approx. 7500 cells/well in a volume of 90 μl) and grown for 24 hr at 37° C. On day 2, various concentrations of test compound (in a volume of 10 μl) were added to the wells and the cells were grown for an additional 48 hr at 37° C. On day 4, an ATP-dependent R-Luciferase assay (Cell Titer Glo assay) was performed to determine the number of viable cells.

Compound	IC50 [1] [µM]	IC50 at 48 h [2] [µM]	IC50 ([1]; Hepatitis C virus) [µM]
2,2-Dichloro-N-[5-[3-[2-chloro-6-[4-(N-2-pyridyl)pipera phenyl])5-isoxazolyl]-(3-pyridyl)] Acetamide [Compound 69]	< 10		
2,2-Dichloro-N-[5-[3-[2-chloro-6-[4-(N-acetyl)piperazino]phenyl])-5-isoxazoly]-(3-pyridyl)] Acetamide [Compound 61]	< 10		
2,2-Dichloro-N-[5-[3-[2-chloro-6-[4-(N-ethylcarboxamido)piperazino]phenyl])-5-isoxazolyl]-(3-pyridyl)] Acetamide [Compound 81]	< 10		
2,2-Dichloro-N-[5-[3-[2-chloro-6-[4-(N-tert-butoxycarbonyl)piperazino]phenyl])-5-isoxazolyl]-(3-pyridyl)] Acetamide [Compound 71]	< 10		
O=C(Nc1ccnc(-c2cc(-c3c(F)cccc3Cl)no2)c1)C(Cl)Cl [Compound 1, 2,2-Dichloro-N-[2-[3-(2-chloro-6-fluorophenyl)-5-isoxazolyl]-(4-pyridyl)] Acetamide]		≥ 10	< 10
Cc1cccc(C)c1-c1cc(-c2cc(NC(=O)C(Cl)Cl)ccn2)on1 [Compound 19, 2,2-Dichloro-N-[2-[3-(2,6-dimethylphenyl)-5-isoxazolyl]-(4-pyridyl)] Acetamide]		> 5	< 10
O=C(Nc1cncc(-c2cc(-c3cccc(Cl)c3Cl)no2)c1)C(Cl)Cl [Compound 29, 2,2-Dichloro-N-[5-[3-(2,3-dichloroplhenyl)-5-isoxazolyl]-(3-pyridyl)] Acetamide]		≥ 10	< 10
O=C(Nc1ccnc(-c2cc(-c3c(N4CCOCC4)cccc3C(F)(F)F)no2)c1)C(Cl)Cl [Compound 31, 2,2-Dichloro-N-[2-[3-(2-morpholino-6-trifluoromethylphenyl)-5-isoxazolyl]-(4-pyridyl)] Acetamide]		≥ 10	< 10
Cc1cccnc1-c1cc(-c2cccc(NC(=O)C(Cl)Cl)c2)on1 [Compound 33, 2,2-Dichloro-N-[3-[3-(3-methyl-2-pyridyl)-5-isoxazolyl]phenyl] Acetamide]		≥ 10	< 10
O=C(Nc1cccc(-c2cc(-c3c(Cl)cccc3Cl)no2)n1)C(Cl)Cl [Compound 35, 2,2-Dichloro-N[6-[3-(2,6-dichlorophenyl)-5-isoxazolyl]-(2-pyridyl)] Acetamide]		≥ 10	> 10
O=C(Nc1cncc(-c2cc(-c3c(F)cccc3C(F)(F)F)no2)c1)C(Cl)Cl [Compound 37, 2,2-Dichloro-N-[5-[3-(2-fluoro-6-trifluoromethylphenyl)-5-isoxazolyl]-(3-pyridyl)] Acetamide]		≥ 10	> 10
COc1cccc(F)c1-c1cc(-c2cc(NC(=O)C(Cl)Cl)ccn2)on1 [Compound 39]		≥ 10	
O=C(Nc1cc[n+]([O-])c(-c2cc(-c3c(Cl)cccc3Cl)no2)c1)C(Cl)Cl [Compound 43]			> 10
CCOC(=O)c1cccnc1-c1cc(-c2cccc(NC(=O)C(Cl)Cl)c2)on1 [Compound 45, 2,2-Dichloro-N-[3-[3-[(3-ethoxycarbonyl)-2-pyridyl]-5-isoxazolyl]phenyl] Acetamide]			> 10
O=C(Nc1ccnc(-c2cc(-c3c(F)cccc3S(=O)(=O)NN3CCOCC3)no2)c1)C(Cl)Cl [Compound 47]	< 10		
CN(C(=O)C(Cl)Cl)c1ccnc(-c2cc(-c3c(Cl)cccc3Cl)no2)c1 [Compound 51, 2,2-Dichloro-N-[2-[3-(2,6-dichlorophenyl)-5-isoxazolyl]-(4-pyridyl)]-N-methyl Acetamide]		≥ 10	< 10
CCN1CCN(c2cccc(Cl)c2-c2cc(-c3cncc(NC(=O)C(Cl)Cl)c3)on2)CC1 [Compound 63]			< 10
O=C(Nc1ccc(-c2cc(-c3c(Cl)cccc3Cl)no2)cn1)C(Cl)Cl [Compound 65, 2,2-Dichloro-N-[5-[3-(2,6-dichlorophenyl)-5-isoxazolyl]-(2-pyridyl)] Acetamide]	> 10		
O=C(Nc1cncc(-c2cc(-c3ccccc3C(F)(F)F)no2)c1)C(Cl)Cl [Compound 67, 2,2-Dichloro-N-[5-[3-(2-trifluoromethylphenyl)-5-isoxazolyl]-(3-pyridyl)] Acetamide]	> 10		
O=C(Nc1cncc(-c2cc(-c3c(Cl)cccc3N3CCNCC3)no2)c1)C(Cl)Cl [Compound 73, 2,2-Dichloro-N-[5-[.3-(2-chloro-6-piperazinophenyl)-5-isoxazolyl]-(3-pyridyl)] Acetamide]	< 10		
CC(C)(C)[Si](C)(C)Oc1cccc(Cl)c1-c1cc(-c2cncc(NC(=O)C(Cl)Cl)c2)on1 [Compound 75, 2,2-Dichloro-N-[5-[3-(2-chloro-6-tert-butyldimethylsilyloxyphenyl)-5-isoxazolyl]-(3-pyridyl)] Acetamide]	< 10		
O=C(Nc1cncc(-c2cc(-c3c(O)cccc3Cl)no2)c1)C(Cl)Cl [Compound 77, 2,2-Dichloro-N-[5-[3-(2-chloro-6-hydroxyphenyl)-5-isoxazolyl]-(3-pyridyl)] Acetamide]	< 10		
CCNC(=O)Oc1cccc(Cl)c1-c1cc(-c2cncc(NC(=O)C(Cl)Cl)c2)on1 [Compound 79, 2,2-Dichloro-N-[5-[3-(2-chloro-6-N-ethylcarbamoyloxyphenyl)-5-isoxazolyl]-(3-pyridyl)] Acetamide]	< 10		
CC(C)(C)[Si](C)(C)Oc1cccc(Cl)c1-c1cc(-c2cc(NC(=O)C(Cl)Cl)ccn2)on1 [Compound 83, 2,2-Dichloro-N-[2-[3-(2-chloro-6-tert-butyldimethylsilyloxyphenyl)-5-isoxazolyl]-(4-pyridyl)] Acetamide]	< 10		
CCCNC(=O)Oc1cccc(Cl)c1-c1cc(-c2cc(NC(=O)C(Cl)Cl)ccn2)on1 [Compound 85]	< 10		
COCOc1cccc(Cl)c1-c1cc(-c2cc(NC(=O)C(Cl)Cl)ccn2)on1 [Compound 87]	< 10		
O=C(Nc1ccnc(-c2cc(-c3c(O)cccc3Cl)no2)c1)C(Cl)Cl [Compound 89, 2,2-Dichloro-N-[2-[3-(2-chloro-6-hydioxyphenyl)-5-isoxazolyl]-(4-pyridyl)] Acetamide]	< 10		
CN(C)c1nccc(Cl)c1-c1cc(-c2cccc(NC(=O)C(Cl)Cl)c2)on1 [Compound 91, 2,2-Dichloro-N-[3-[3-[(4-chloro-2-dimethylamino)-3-pyridyl]-5-isoxazolyl]phenyl] Acetamide]	< 10		
O=C(Nc1cccc(-c2cc(-c3c(Cl)ccnc3Cl)no2)c1)C(Cl)Cl [Compound 93, 2,2-Dichloro-N-[3-[3-[(2,4-dichloro)-3-pyridy]-5-isoxazolyl]phenyl] Acetamide]	< 10		
O=C(Nc1ccncc1-c1cc(-c2cccc(Br)n2)no1)C(Cl)Cl [Compound 97, 2,2-Dichloro-N-[3-[3-[(6-bromo)-2-pyridyl]-5-isoxazolyl]-(4-pyridyl)] Acetamide]	> 10		
